The record followed here is patent US20240158418A1 (C4 Therapeutics, Inc., priority 2021, published 2024).

Structures are written as SMILES.

Test [1] addresses T1, G1 to S Phase Transition 1 (GSPT1) (Homo sapiens, UniProt P15170).
T1 construct: Endogenous expression of GSPT1 in 293T cells was determined by addition of N-terminal HiBiT tag; host or cells: 293T (CRISPR-Cas9 HiBiT knock-in)
The experiment in a line: GSPT1 degradation, HiBiT-tagged GSPT1 in 293T cells. Particulars: 6 hours, up to 10 WV. It counts as cell-based. On the procedure: Endogenous expression of GSPT1 in 293T cells was determined by addition of N-terminal HiBiT tag to the 293T cell line (ATCC CRL-3216) using CRISPR-Cas9. Briefly, test compound was added to 384-well plates at a top concentration of 10 μM with 11 points, half log titration in duplicates. 293T cells expressing HiBiT-tagged GSPT1 were seeded into the 384-well plates in DMEM medium containing 10% FBS at a cell density of 6000 cells per well. Cells treated in the absence of the test compound were the negative control and wells containing media only were the positive control. Following compound treatment, cells were incubated at 37° C. with 5% CO2 for 6 hr. HiBiT signal was determined using Nano-Glo™ HiBiT Lytic Assay System (Promega, N3050) and luminescence was acquired on EnVision™ Multilabel Reader (PerkinElmer, Santa Clara, CA, USA). % GSPT1 remaining was determined by normalizing the signal with positive and negative controls on the same microtiter plate. Data in FIG. 8 are expressed as the mean±SD. Curve fit and IC50 determination was performed by 4 parametric regression analysis.

For test [2], the system named is NCI-H1975 L858R-T790M NSCLC xenograft tumors. Briefly: NCI-H1975 NSCLC xenograft efficacy. It counts as in vivo, female BALB/c nude mice. Here is the method:
For the NCI-H1975 cells, the xenograft study was conducted in female BALB/c nude mice bearing NCI-H1975 NSCLC tumors. Female nude mice were inoculated subcutaneously in the right flank with 5×10^6 tumors cells in 0.1 mL of PBS. Tumor volume was measured twice weekly in two dimensions using calipers, and volume (mm^3) was calculated using the formula: V=0.5 a×b^2 where a and b are the long and short diameters of the tumor in mm, respectively.
Body weight and MTV were measured on a 2× weekly schedule. Statistical analysis was performed using a one-way ANOVA. Data are expressed as MTV±SEM.

Test [3] deals with NCI-H1975 cells. Briefly: Global proteomics (TMT), NCI-H1975. Type of test: cell-based, human. Here is the method:
Each cell line was treated in duplicate with either DMSO or Compound 1 (final concentration 300 nM) for 6 hours in an incubator at 37° C. with 5% CO2. After 6 hour incubation, cells were harvested, washed twice with PBS, and snap frozen in liquid nitrogen. Samples were re-suspended in lysis buffer [8 M urea, 50 mM HEPS (pH 8.5), 50 mM NaCl, 1× protease inhibitor cocktail] and lysed by sonication at 4° C. with 85% amplitude in a pulse setting with 30 seconds on and 30 seconds off for a total sonication time of 5 minutes. Lysates were centrifuged at maximum speed for 10 minutes at 4° C. and the supernatant collected, reduced for 1 hour at room temperature with 5 mM TCEP, and the cysteine residues were then alkylated with 15 mM iodoacetamide (room temperature, in dark, 30 minutes). Protein content was extracted by methanol-chloroform precipitation and subsequent ice-cold acetone washes. Protein pellets were resuspended in 8 M urea, 50 mM HEPES (pH 8.5) buffer and protein concentrations were measured by BCA assay. […]
6 μL of each sample was separated by reversed phase chromatography using an EASY-Spray C18 column (2 μm particle size, 500 mm length×75 μm ID) mounted in an EASY-nLC 1200 LC pump coupled to an Orbitrap Fusion Lumos Tribid mass spectrometer. […] TMT reporter ion intensities were quantified by extracting the signal-to-noise ratio for each. […]

Test [4] has as its target EGFR L858R (Homo sapiens, UniProt P00533, L858R). The experiment in a line: Western blot NCI-H3255, Compound 1 with or without osimertinib: EGFR-L858R. Type of test: cell-based. As to conditions: NCI-H3255, six hours, 0-1,500 nM, presence and absence of 1,500 nM osimertinib. An excerpt: The compound bearing solutions were formulated to achieve a 0.1% final concentration of DMSO. […] Antibodies used in western blot were purchased from the following vendors: EGFR-L858R specific antibody (CST 3197), pY1068 EGFR (CST 2234), pERK (CST 4370), ERK (CST 4695), vinculin (Millipore 05-386).

EGFR L858R, sequence (P00533 25-1210 L858R): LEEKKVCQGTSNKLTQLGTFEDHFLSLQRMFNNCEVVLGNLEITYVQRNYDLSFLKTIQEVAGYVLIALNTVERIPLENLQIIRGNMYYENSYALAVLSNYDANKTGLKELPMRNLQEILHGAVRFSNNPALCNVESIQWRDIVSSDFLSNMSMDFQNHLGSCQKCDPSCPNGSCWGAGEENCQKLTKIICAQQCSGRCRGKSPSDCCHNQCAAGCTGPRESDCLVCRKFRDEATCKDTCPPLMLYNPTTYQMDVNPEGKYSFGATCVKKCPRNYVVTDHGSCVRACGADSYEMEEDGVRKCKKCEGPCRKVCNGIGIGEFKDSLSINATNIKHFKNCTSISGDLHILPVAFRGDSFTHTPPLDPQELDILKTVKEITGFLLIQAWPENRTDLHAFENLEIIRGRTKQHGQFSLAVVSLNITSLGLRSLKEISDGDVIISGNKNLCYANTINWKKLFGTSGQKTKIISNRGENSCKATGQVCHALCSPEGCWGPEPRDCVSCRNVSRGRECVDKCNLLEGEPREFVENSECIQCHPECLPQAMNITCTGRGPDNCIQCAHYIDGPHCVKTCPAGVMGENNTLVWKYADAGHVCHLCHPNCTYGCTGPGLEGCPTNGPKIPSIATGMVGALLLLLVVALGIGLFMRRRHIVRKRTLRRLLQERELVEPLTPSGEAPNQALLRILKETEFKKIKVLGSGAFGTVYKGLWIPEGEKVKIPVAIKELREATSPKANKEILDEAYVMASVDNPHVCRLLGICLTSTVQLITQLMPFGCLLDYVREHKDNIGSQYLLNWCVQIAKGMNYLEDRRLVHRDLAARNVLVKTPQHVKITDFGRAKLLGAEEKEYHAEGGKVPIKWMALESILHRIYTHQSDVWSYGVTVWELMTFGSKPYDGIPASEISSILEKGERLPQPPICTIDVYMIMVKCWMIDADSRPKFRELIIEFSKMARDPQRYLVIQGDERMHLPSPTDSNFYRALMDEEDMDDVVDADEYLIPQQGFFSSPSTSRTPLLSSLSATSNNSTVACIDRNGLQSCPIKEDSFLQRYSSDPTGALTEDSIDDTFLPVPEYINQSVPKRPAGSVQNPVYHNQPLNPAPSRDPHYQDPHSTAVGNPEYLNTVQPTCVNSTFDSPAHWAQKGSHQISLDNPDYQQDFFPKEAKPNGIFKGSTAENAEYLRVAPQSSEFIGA
T1 sequence (Q96SW2 whole entry partner): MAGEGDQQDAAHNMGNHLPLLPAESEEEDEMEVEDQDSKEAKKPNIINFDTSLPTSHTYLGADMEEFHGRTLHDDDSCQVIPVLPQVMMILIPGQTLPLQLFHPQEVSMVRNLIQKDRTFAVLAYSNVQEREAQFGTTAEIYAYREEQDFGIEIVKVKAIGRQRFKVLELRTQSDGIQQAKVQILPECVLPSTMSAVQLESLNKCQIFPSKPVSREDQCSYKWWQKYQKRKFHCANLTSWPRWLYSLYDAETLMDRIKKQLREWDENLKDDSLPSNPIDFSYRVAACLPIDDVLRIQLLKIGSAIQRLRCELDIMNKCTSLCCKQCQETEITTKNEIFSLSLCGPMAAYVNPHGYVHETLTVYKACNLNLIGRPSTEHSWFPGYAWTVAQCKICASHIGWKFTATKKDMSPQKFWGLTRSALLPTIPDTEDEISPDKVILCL
T1 sequence (Q16531 whole entry partner): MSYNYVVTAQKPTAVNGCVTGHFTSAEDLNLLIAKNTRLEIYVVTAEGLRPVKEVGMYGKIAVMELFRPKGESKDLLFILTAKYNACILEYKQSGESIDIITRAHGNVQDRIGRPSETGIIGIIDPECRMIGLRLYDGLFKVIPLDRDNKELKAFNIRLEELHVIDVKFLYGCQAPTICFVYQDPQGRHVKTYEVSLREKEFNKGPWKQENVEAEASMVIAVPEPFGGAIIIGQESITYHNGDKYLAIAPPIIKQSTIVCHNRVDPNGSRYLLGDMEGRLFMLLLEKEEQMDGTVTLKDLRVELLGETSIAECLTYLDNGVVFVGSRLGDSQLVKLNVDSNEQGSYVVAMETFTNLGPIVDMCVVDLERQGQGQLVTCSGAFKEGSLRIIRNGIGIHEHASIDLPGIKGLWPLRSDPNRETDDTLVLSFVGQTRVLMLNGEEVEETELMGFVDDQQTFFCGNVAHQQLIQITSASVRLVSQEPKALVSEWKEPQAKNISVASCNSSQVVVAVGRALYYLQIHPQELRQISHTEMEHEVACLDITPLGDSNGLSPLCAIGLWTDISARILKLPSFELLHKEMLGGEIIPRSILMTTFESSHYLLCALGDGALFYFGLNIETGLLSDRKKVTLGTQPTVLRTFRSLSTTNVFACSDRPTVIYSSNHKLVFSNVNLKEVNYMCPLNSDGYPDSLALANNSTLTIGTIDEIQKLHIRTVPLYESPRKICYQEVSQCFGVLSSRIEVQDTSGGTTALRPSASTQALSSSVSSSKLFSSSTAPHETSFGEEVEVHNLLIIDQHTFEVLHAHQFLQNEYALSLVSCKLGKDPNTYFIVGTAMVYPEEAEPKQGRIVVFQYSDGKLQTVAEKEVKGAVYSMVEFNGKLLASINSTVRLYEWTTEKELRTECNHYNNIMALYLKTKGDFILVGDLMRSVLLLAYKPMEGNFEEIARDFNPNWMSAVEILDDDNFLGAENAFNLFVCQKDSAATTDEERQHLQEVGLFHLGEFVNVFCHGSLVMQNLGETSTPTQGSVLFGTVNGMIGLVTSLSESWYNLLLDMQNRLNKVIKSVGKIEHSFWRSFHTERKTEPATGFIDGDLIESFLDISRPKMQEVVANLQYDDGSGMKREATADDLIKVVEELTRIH
T1 sequence (P15170 whole entry): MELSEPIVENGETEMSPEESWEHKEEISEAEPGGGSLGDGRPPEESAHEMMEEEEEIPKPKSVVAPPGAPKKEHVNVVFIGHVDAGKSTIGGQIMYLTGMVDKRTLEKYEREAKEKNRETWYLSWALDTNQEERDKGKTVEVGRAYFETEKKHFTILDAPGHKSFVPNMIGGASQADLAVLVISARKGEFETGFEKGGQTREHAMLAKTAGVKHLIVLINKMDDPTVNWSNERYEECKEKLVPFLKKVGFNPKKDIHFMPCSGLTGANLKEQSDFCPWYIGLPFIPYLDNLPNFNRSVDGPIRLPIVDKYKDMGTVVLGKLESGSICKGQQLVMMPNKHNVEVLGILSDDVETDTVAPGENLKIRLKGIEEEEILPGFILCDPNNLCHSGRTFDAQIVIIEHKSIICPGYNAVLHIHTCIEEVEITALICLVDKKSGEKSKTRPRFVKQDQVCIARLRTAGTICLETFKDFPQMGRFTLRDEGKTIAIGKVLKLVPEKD

Regarding `O=C1CC[C@H](Nc2ccc(N3CCC(O)(CC(=O)N4CC5(C4)CN(c4ccc(-c6cc(F)c7c(c6)C(=O)N(C(C(=O)Nc6nccs6)c6ncn8c6CCC8)C7)cc4)C5)CC3)c(F)c2)C(=O)N1` (stereo partly drawn) [Compound 1, 2-(6,7-dihydro-5H-pyrrolo[1,2-c]imidazol-1-yl)-2-[6-[4-[2-[2-[1-[4-[[(3S)-2,6-dioxo-3-piperidyl]amino]-2-fluoro-phenyl]-4-hydroxy-4-piperidyl]acetyl]-2,6-diazaspiro[3.3]heptan-6-yl]phenyl]-4-fluoro-1-oxo-isoindolin-2-yl]-N-thiazol-2-yl-acetamide], in test [1], the “GSPT1 degradation (% GSPT1 remaining)” value is reported as “no significant effect”. Besides, the “efficacy on NCI-H1975 tumor volume” value in test [2] (20, 50 and 100 mg/kg/day PO BID, 14 days) is reported as “reduced tumor volume”. Further, the tumor regression entry in test [2] (NCI-H1975 mouse xenograft model, oral) is “up to 90%”. For the same compound, in test [3], the “degradation selectivity for mutant EGFR-L858R over non-EGFR proteins” value is given as “highly selective”. Also, the “EGFR-L858R degradation (western blot)” value in test [4] was “efficiently degraded”.
